Here are results for 8 compounds from BindingDB's records for doi:10.1016/j.bmc.2007.01.021 (Polish Academy of Sciences, 2007).

A word on the Ki: it is the dissociation constant of the complex between target and ligand, obtained from inhibition or displacement. A higher Ki goes with lower affinity.

SMILES strings stand for the structures.

Chain of Thymidylate synthase (P07607 whole entry): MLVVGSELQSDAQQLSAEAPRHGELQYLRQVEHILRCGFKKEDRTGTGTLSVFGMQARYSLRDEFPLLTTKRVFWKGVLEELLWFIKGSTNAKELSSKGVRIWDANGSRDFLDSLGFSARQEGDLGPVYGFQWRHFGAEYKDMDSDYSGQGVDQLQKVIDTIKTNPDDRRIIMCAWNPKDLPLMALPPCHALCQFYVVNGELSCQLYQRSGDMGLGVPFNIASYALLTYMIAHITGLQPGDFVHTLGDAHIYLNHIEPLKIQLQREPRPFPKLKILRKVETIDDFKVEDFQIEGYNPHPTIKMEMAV

The test concerns the target Thymidylate synthase (Mus musculus, UniProt P07607). The test can be described thus: Inhibition of mouse thymidylate synthase in mouse L1210 cells.
Turning to `Cc1cn([C@H]2C[C@H](O)[C@@H](OP(=O)(O)O)O2)c(=O)[nH]c1=O`, the Ki came to 138 nM.

Regarding `O=c1[nH]c(=O)n([C@H]2C[C@H](O)[C@@H](OP(=O)(O)O)O2)cc1I`, affinity was put at a Ki of 128 nM. The result for `CCCc1cn([C@H]2C[C@H](O)[C@@H](OP(=O)(O)O)O2)c(=O)[nH]c1=O` reads 8.12 nM; that for `O=c1[nH]c(=O)n([C@H]2C[C@H](O)[C@@H](OP(=O)(O)O)O2)cc1CO`, 269 nM; that for `CCc1cn([C@H]2C[C@H](O)[C@@H](OP(=O)(O)O)O2)c(=O)[nH]c1=O`, 28.1 nM. The same measure for `O=c1[nH]c(=O)n([C@H]2C[C@H](O)[C@@H](OP(=O)(O)O)O2)cc1O`: 309 nM. The same measure for `O=c1[nH]c(=O)n([C@H]2C[C@H](O)[C@@H](OP(=O)(O)O)O2)cc1Br`: 660 nM; for `O=c1[nH]c(=O)n([C@H]2C[C@H](O)[C@@H](OP(=O)(O)O)O2)cc1[N+](=O)[O-]`: 2.57 nM.
